Reference: ChEMBL document CHEMBL1132338, “Molecular recognition in nicotinic acetylcholine receptors: the importance of pi-cation interactions” (J Med Chem, 1999)

Assays:
[1] = target: Neuronal acetylcholine receptor; alpha4/beta2 (Homo sapiens, UniProt P17787+P43681); test: Binding affinity at heteropentameric Nicotinic acetylcholine receptor alpha4-beta2 subtype using […] as radioligand; format: protein-complex assay
[2] = target: Neuronal acetylcholine receptor subunit alpha-7 (Homo sapiens, UniProt P36544); test: Binding affinity at homopentameric Nicotinic acetylcholine receptor alpha-7 subtype using [3H]-alpha-bungarotoxin as radioligand
Sequence of Neuronal acetylcholine receptor subunit alpha-7 (P36544 whole entry): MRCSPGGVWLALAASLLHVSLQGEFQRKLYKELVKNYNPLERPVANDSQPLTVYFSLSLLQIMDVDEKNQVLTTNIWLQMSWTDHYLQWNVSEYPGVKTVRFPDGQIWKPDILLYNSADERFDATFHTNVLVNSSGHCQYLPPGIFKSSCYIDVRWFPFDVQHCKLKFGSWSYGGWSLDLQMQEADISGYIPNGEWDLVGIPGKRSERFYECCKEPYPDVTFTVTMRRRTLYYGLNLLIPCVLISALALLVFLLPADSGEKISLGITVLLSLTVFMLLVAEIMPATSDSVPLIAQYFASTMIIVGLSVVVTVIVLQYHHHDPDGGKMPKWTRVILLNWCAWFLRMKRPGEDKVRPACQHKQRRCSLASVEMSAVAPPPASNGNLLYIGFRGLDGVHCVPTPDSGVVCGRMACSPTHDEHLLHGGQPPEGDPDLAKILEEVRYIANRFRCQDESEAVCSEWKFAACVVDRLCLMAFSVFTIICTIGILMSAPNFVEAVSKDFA

Sequence of Neuronal acetylcholine receptor; alpha4/beta2 (P17787 whole entry): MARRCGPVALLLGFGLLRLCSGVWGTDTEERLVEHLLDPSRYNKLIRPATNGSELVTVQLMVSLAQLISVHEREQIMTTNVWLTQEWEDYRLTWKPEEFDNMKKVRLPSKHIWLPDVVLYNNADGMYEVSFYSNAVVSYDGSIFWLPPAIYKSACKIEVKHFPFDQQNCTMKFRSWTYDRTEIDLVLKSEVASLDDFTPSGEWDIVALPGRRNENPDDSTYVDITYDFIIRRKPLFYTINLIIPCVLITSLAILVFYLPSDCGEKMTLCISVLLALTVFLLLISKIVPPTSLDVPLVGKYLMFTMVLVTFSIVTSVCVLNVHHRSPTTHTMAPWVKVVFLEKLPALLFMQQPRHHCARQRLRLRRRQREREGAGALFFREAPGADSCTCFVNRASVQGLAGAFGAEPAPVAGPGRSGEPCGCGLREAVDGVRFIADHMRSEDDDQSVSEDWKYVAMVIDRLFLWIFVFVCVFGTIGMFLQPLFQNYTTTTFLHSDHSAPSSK
Sequence of Neuronal acetylcholine receptor; alpha4/beta2 (P43681 whole entry): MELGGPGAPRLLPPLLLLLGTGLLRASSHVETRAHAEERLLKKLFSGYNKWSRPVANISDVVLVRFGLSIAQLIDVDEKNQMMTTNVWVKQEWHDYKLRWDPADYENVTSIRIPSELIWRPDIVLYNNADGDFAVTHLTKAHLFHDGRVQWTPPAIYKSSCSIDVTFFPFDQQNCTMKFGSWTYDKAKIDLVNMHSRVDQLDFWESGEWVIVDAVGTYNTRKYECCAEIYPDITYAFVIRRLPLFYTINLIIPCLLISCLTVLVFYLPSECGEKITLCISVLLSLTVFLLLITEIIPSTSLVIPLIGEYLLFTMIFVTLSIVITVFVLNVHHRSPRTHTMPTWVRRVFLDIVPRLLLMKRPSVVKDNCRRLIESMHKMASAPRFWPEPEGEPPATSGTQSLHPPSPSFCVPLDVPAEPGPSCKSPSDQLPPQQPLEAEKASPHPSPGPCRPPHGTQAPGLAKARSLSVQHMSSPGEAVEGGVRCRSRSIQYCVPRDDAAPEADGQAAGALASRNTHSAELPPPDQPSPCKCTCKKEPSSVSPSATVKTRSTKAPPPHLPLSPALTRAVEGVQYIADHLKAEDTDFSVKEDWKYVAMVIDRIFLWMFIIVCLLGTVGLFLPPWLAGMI

| Compound | Ki [1] [nM] | Ki [2] [nM] |
| --- | --- | --- |
| c1cncc(C2CCN2)c1 (stereo not given) | 1.1 |  |
| CN1C2CCC1C(c1ccc(Cl)nc1)C2 (stereo not given) | 0.26 |  |
| CN1CCCCC1c1cccnc1 (stereo not given) | 450 | 9700 |
| c1cncc([C@@H]2CCCN2)c1 [NORNICOTINE] |  | 730 |
| C[N+](C)(C)C [TETRAMETHYLAMMONIUM ION] | 24 | 2300 |
| c1cncc(C2CCCCN2)c1 (stereo not drawn) [DL-ANABASINE] | 92 | 450 |
| Clc1ccc(C2CC3CCC2N3)cn1 (stereo not given) [EPIBATIDINE] |  | 25 |
